Test results from PubChem BioAssay (NCI).
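Test compounds were applied to cells in 96-well plates for 48 hours at 5 doses. GI50: concentration for 50% inhibition of growth. TGI: total growth inhibition.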

Key:
Assay in all cases: growth of human tumour cells (NCI), 48 h
[1] = test system: MDA-MB-231 breast
[2] = test system: HOP-62 NSCLC
[3] = test system: MDA-MB-435
[4] = test system: HCT-116 colon
[5] = test system: U251 CNS
[6] = test system: RPMI-8226 leukemia
[7] = test system: OVCAR-4 ovarian
[8] = test system: HCT-15 colon
[9] = test system: SN12C renal
[10] = test system: SK-MEL-2 melanoma
[11] = test system: NCI-H23 lung
[12] = test system: A549 NSCLC
[13] = test system: KM12 colon
[14] = test system: K-562 leukemia
[15] = test system: NCI/ADR-RES ovarian
[16] = test system: UACC-62 melanoma
[17] = test system: HCC-2998 colon
[18] = test system: MCF7 breast
[19] = test system: SW-620 colon
[20] = test system: SF-268 CNS
[21] = test system: MOLT-4 leukemia
[22] = test system: SF-295 CNS
[23] = test system: BT-549 breast
[24] = test system: CAKI-1 renal
[25] = test system: RXF 393 renal
[26] = test system: NCI-H460 lung
[27] = test system: IGROV1 ovarian
[28] = test system: COLO 205 colon
[29] = test system: SK-OV-3 ovarian
[30] = test system: SF-539 CNS
[31] = test system: HS 578T breast
[32] = test system: M14 melanoma
[33] = test system: NCI-H226 lung
[34] = test system: OVCAR-3 ovarian
[35] = test system: LOX IMVI melanoma
[36] = test system: 786-0 renal
[37] = test system: OVCAR-5 ovarian
[38] = test system: SR leukemia
[39] = test system: A498 renal
[40] = test system: ACHN renal
[41] = test system: HT29 colon
[42] = test system: MALME-3M melanoma
[43] = test system: PC-3 prostate
[44] = test system: UACC-257 melanoma
[45] = test system: UO-31 renal
[46] = test system: SNB-19 CNS
[47] = test system: SK-MEL-28 melanoma
[48] = test system: OVCAR-8 ovarian
[49] = test system: EKVX NSCLC
[50] = test system: TK-10 renal
[51] = test system: CCRF-CEM leukemia
[52] = test system: NCI-H522 lung
[53] = test system: HL-60(TB) leukemia
[54] = test system: DU-145 prostate
[55] = test system: SNB-75 CNS
[56] = test system: T-47D breast
[57] = test system: HOP-92 NSCLC
[58] = test system: SK-MEL-5 melanoma

For `O=C(Nc1ccc(-n2ccc3c(NC(=O)c4ccccc4)nccc32)cc1)c1cccc(C(F)(F)F)c1`, the GI50 [1] was 2.88 µM, the TGI [1] was 14.7 µM and the GI50 [2] was 2.02 µM. It also gave a TGI [2] of 14.5 µM, a GI50 [3] of 0.657 µM and a TGI [3] of 4.98 µM. The GI50 [4] was 0.177 µM, the TGI [4] was 6.92 µM and the GI50 [5] was 0.158 µM. It also gave a TGI [5] of 7.09 µM, a GI50 [6] of 0.614 µM and a TGI [6] of 14.2 µM. The GI50 [7] was 2.7 µM, the TGI [7] was 22.6 µM and the GI50 [8] was 0.0428 µM. For the same compound, the TGI [8] was 6.99 µM, the GI50 [9] was 1.67 µM and the TGI [9] was over 35.6 µM. It also gave a GI50 [10] of 1.29 µM, a TGI [10] of 7.27 µM and a GI50 [11] of 3.88 µM. The TGI [11] was over 36.1 µM, the GI50 [12] was 0.418 µM and the TGI [12] was 9.4 µM. For the same compound, the GI50 [13] was 0.4 µM, the TGI [13] was 7.64 µM and the GI50 [14] was 0.231 µM. For the same compound, the TGI [14] was over 23.1 µM, the GI50 [15] was 0.724 µM and the TGI [15] was 11.9 µM. For the same compound, the GI50 [16] was 0.714 µM, the TGI [16] was 8.48 µM and the GI50 [17] was 1.71 µM. For the same compound, the TGI [17] was 11.6 µM, the GI50 [18] was 0.413 µM and the TGI [18] was 7.94 µM. For the same compound, the GI50 [19] was 0.381 µM, the TGI [19] was 7.32 µM and the GI50 [20] was 0.473 µM. For the same compound, the TGI [20] was 25.6 µM, the GI50 [21] was 0.29 µM and the TGI [21] was over 25.9 µM. The GI50 [22] was 0.392 µM, the TGI [22] was 7.99 µM and the GI50 [23] was 2.03 µM. For the same compound, the TGI [23] was 22.3 µM, the GI50 [24] was 0.326 µM and the TGI [24] was 7.92 µM. For the same compound, the GI50 [25] was 1.02 µM, the TGI [25] was 5.97 µM and the GI50 [26] was 0.119 µM. It also gave a TGI [26] of 5.38 µM, a GI50 [27] of 1.4 µM and a TGI [27] of over 50 µM. The GI50 [28] was 1.42 µM, the TGI [28] was 10.3 µM and the GI50 [29] was 0.879 µM. For the same compound, the TGI [29] was 15.4 µM, the GI50 [30] was 0.47 µM and the TGI [30] was 11.5 µM. The GI50 [31] was 1.42 µM, the TGI [31] was 13.1 µM and the GI50 [32] was 1.38 µM. For the same compound, the TGI [32] was 9.06 µM, the GI50 [33] was 2.56 µM and the TGI [33] was over 50 µM. It also gave a GI50 [34] of 1 µM, a TGI [34] of 7.89 µM and a GI50 [35] of 0.182 µM. The TGI [35] was 5.4 µM, the GI50 [36] was 0.728 µM and the TGI [36] was 9.14 µM. It also gave a GI50 [37] of 3.07 µM, a TGI [37] of over 50 µM and a GI50 [38] of 0.0753 µM. The TGI [38] was over 18 µM, the GI50 [39] was 0.905 µM and the TGI [39] was 15.6 µM. The GI50 [40] was 0.624 µM, the TGI [40] was 14.7 µM and the GI50 [41] was 0.243 µM. The TGI [41] was 4.02 µM, the GI50 [42] was 2.04 µM and the TGI [42] was 12.2 µM. It also gave a GI50 [43] of 1.29 µM, a TGI [43] of 27.3 µM and a GI50 [44] of 2.09 µM. For the same compound, the TGI [44] was over 21.6 µM, the GI50 [45] was 1.83 µM and the TGI [45] was 15.9 µM. It also gave a GI50 [46] of 0.729 µM, a TGI [46] of 20.1 µM and a GI50 [47] of 2.4 µM. For the same compound, the TGI [47] was 11 µM, the GI50 [48] was 0.393 µM and the TGI [48] was 10.3 µM. For the same compound, the GI50 [49] was 4.33 µM, the TGI [49] was over 50 µM and the GI50 [50] was 1.53 µM. For the same compound, the TGI [50] was 12.6 µM, the GI50 [51] was 0.313 µM and the TGI [51] was 13.2 µM. For the same compound, the GI50 [52] was 1.07 µM, the TGI [52] was over 13.5 µM and the GI50 [53] was 0.685 µM. The TGI [53] was 15.3 µM, the GI50 [54] was 1.64 µM and the TGI [54] was 9.71 µM. For the same compound, the GI50 [55] was 0.707 µM, the TGI [55] was 6.59 µM and the GI50 [56] was 4.66 µM. The TGI [56] was 30.9 µM, the GI50 [57] was 1.96 µM and the TGI [57] was over 50 µM. For the same compound, the GI50 [58] was 0.194 µM and the TGI [58] was 6.65 µM.
Compound `Cc1ccc2nc3ccccc3c(NCc3ccccc3)c2c1` has a GI50 [1] of 3.33 µM, a TGI [1] of 10.5 µM and a GI50 [2] of 3.77 µM. The TGI [2] was 12.5 µM, the GI50 [3] was 4.72 µM and the TGI [3] was 10.8 µM. It also gave a GI50 [4] of 1.44 µM, a TGI [4] of 6.62 µM and a GI50 [5] of 2.49 µM. It also gave a TGI [5] of 10.2 µM, a GI50 [6] of 1.56 µM and a TGI [6] of 6.45 µM. For the same compound, the GI50 [7] was 2.64 µM, the TGI [7] was 9.42 µM and the GI50 [8] was 2.01 µM. The TGI [8] was 7.64 µM, the GI50 [9] was 2.41 µM and the TGI [9] was 9.15 µM. For the same compound, the GI50 [10] was 7.79 µM, the TGI [10] was 16 µM and the GI50 [11] was 3.69 µM. For the same compound, the TGI [11] was 11.9 µM, the GI50 [12] was 2.63 µM and the TGI [12] was 10.9 µM. For the same compound, the GI50 [13] was 5.13 µM, the TGI [13] was 12.6 µM and the GI50 [14] was 1.46 µM. It also gave a TGI [14] of 8.78 µM, a GI50 [15] of 2.46 µM and a TGI [15] of 10.6 µM. The GI50 [16] was 5.9 µM, the TGI [16] was 12.8 µM and the GI50 [17] was 1.86 µM. The TGI [17] was 6.86 µM, the GI50 [18] was 1.8 µM and the TGI [18] was 7.93 µM. It also gave a GI50 [19] of 1.76 µM, a TGI [19] of 7.85 µM and a GI50 [20] of 3.83 µM. It also gave a TGI [20] of 10.6 µM, a GI50 [21] of 1.5 µM and a TGI [21] of 8.73 µM. For the same compound, the GI50 [22] was 2.28 µM, the TGI [22] was 8.58 µM and the GI50 [23] was 5.13 µM. For the same compound, the TGI [23] was 11.7 µM, the GI50 [24] was 2.39 µM and the TGI [24] was 9.26 µM. For the same compound, the GI50 [25] was 1.42 µM, the TGI [25] was 5.4 µM and the GI50 [26] was 2.07 µM. The TGI [26] was 7.44 µM, the GI50 [27] was 2.01 µM and the TGI [27] was 9.2 µM. It also gave a GI50 [28] of 1.47 µM, a TGI [28] of 6.46 µM and a GI50 [29] of 6.05 µM. The TGI [29] was 12.9 µM, the GI50 [30] was 2.43 µM and the TGI [30] was 9.07 µM. The GI50 [31] was 5.14 µM, the TGI [31] was 15.4 µM and the GI50 [32] was 5.83 µM. For the same compound, the TGI [32] was 13 µM, the GI50 [33] was 3.59 µM and the TGI [33] was 12 µM. The GI50 [34] was 3.09 µM, the TGI [34] was 9.97 µM and the GI50 [35] was 1.67 µM. It also gave a TGI [35] of 6.15 µM, a GI50 [36] of 2.24 µM and a TGI [36] of 8.37 µM. It also gave a GI50 [37] of 2.81 µM, a TGI [37] of 9.92 µM and a GI50 [38] of 1.31 µM. For the same compound, the TGI [38] was 3.62 µM, the GI50 [39] was 1.24 µM and the TGI [39] was 6.9 µM. The GI50 [40] was 2.39 µM, the TGI [40] was 8.88 µM and the GI50 [41] was 1.54 µM. It also gave a TGI [41] of 7.43 µM, a GI50 [42] of 4.25 µM and a TGI [42] of 11 µM. It also gave a GI50 [43] of 1.94 µM, a TGI [43] of 9.38 µM and a GI50 [44] of 7.77 µM. The TGI [44] was 17.8 µM, the GI50 [45] was 1.44 µM and the TGI [45] was 7.5 µM. The GI50 [46] was 4.01 µM, the TGI [46] was 11 µM and the GI50 [47] was 6.67 µM. The TGI [47] was 14 µM, the GI50 [48] was 2.32 µM and the TGI [48] was 11.1 µM. The GI50 [49] was 5.07 µM, the TGI [49] was 12.9 µM and the GI50 [50] was 6.43 µM. The TGI [50] was 13.9 µM, the GI50 [51] was 2.12 µM and the TGI [51] was 50 µM. For the same compound, the GI50 [52] was 2.72 µM, the TGI [52] was 12.6 µM and the GI50 [53] was 3.49 µM. The TGI [53] was 12.7 µM, the GI50 [54] was 2.56 µM and the TGI [54] was 8.83 µM. It also gave a GI50 [55] of 5.68 µM, a TGI [55] of 11.9 µM and a GI50 [56] of 7 µM. The TGI [56] was 18.8 µM, the GI50 [57] was 1.34 µM and the TGI [57] was 7.56 µM. The GI50 [58] was 4.46 µM and the TGI [58] was 10.5 µM.
